Experimental data as given in the supplement of paper PMC10307832.

Key:
Test in all cases: relative viability (nuclei count vs DMSO), 5 days (fraction); higher = more cells survive
[1] = compound: CC1=C(C=C(C=C1)NC(=O)C2=CC(=CC=C2)C(C)(C)C#N)NC3=CC4=C(C=C3)N=CN(C4=O)C [AZ628] + COc1cccc2cc(-c3nc([C@H]4CC[C@H](C(=O)O)CC4)n4ncnc(N)c34)[nH]c12 [OSI-027] (partner 0.5 µM)
In short: (§1)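 Dosing by pin tool came one day after lung cancer cell lines were seeded in 1536-well plates, using either one drug or a fixed anchor-drug dose plus five library-drug doses (not always all listed) in √10 steps. After 5 days, nuclei were counted on 4× images. Relative viability is treated-well nuclei count divided by vehicle-well nuclei count, and values are medians of duplicate plates.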

[2] = compound: C[As](C)SC[C@H](NC(=O)CC[C@H](N)C(=O)O)C(=O)NCC(=O)O [Darinaparsin] + CC(=O)c1c(C)c2cnc(Nc3ccc(N4CCNCC4)cn3)nc2n(C2CCCC2)c1=O [Palbociclib] (partner 0.5 µM)
In short: as §1

[3] = compound: C[As](C)SC[C@H](NC(=O)CC[C@H](N)C(=O)O)C(=O)NCC(=O)O [Darinaparsin] + COc1cc2c(Oc3ccc(NC(=O)C4(C(=O)Nc5ccc(F)cc5)CC4)cc3F)ccnc2cc1OCCCN1CCOCC1 [Foretinib] (partner 0.25 µM)
In short: as §1

[4] = compound: C[As](C)SC[C@H](NC(=O)CC[C@H](N)C(=O)O)C(=O)NCC(=O)O [Darinaparsin] + CS(=O)(=O)N1CCN(Cc2cc3nc(-c4cccc5[nH]ncc45)nc(N4CCOCC4)c3s2)CC1 [Pictilisib] (partner 1 µM)
In short: as §1

Cell Line	relative viability ([1]; first compound 0.08 µM)	relative viability ([1]; first compound 0.253 µM)	relative viability ([1]; first compound 0.8 µM)	relative viability ([1]; first compound 2.53 µM)	relative viability ([1]; first compound 8 µM)	relative viability ([2]; first compound 0.08 µM)	relative viability ([2]; first compound 0.8 µM)	relative viability ([2]; first compound 2.53 µM)	relative viability ([2]; first compound 8 µM)	relative viability ([3]; first compound 0.08 µM)	relative viability ([3]; first compound 0.8 µM)	relative viability ([3]; first compound 2.53 µM)	relative viability ([3]; first compound 8 µM)	relative viability ([4]; first compound 0.08 µM)	relative viability ([4]; first compound 0.8 µM)	relative viability ([4]; first compound 2.53 µM)	relative viability ([4]; first compound 8 µM)
NCI-H2009	0.537	0.452	0.287	0.327	0.243	0.208	0.166	0.225	0.203	0.435	1.18	1.15	1.33	0.94	0.759	0.815	0.711
SK-LU-1	–	0.315	0.276	0.33	0.208	0.381	0.338	0.339	0.347	1.13	0.76	0.65	0.958	0.661	0.58	0.502	0.789
RERF-LC-KJ	0.53	0.523	0.528	0.462	0.458	1.13	1.11	1.02	1.08	1.03	0.931	0.859	0.961	0.576	0.571	0.522	0.44
NCI-H322M	0.503	0.534	0.541	0.532	0.482	0.478	0.456	0.487	0.442	1.04	1.04	0.826	1.02	0.58	0.495	0.469	0.59
LK-2	0.191	0.234	0.234	0.187	0.198	1	–	0.815	0.989	1.98	–	0.769	1.83	0.634	–	0.547	0.564
SK-MES-1	0.599	0.593	0.653	0.572	0.297	0.308	0.303	0.298	0.314	1.05	0.808	0.595	1.05	0.354	0.353	0.336	0.401
NCI-H1299	–	–	–	–	–	–	–	–	–	1.14	1.06	1.09	1.11	1.03	0.882	0.751	0.808
NCI-H2228	0.627	0.521	0.519	0.623	0.281	0.805	0.881	0.419	0.998	1.42	0.935	0.949	0.891	0.401	0.344	0.473	0.544
NCI-H1792	0.735	0.516	0.474	0.428	0.233	0.634	0.633	0.524	0.754	–	–	–	–	0.169	0.235	0.243	0.356
LOU-NH91	0.72	0.712	0.651	0.664	0.569	0.576	0.512	0.562	0.641	0.926	0.92	0.961	0.954	0.535	0.492	0.553	0.56
IA-LM	–	–	–	–	–	–	–	–	–	1.51	1.27	1.35	1.55	0.414	0.408	0.949	0.313
SW 900	0.61	0.566	0.501	0.345	0.474	0.55	–	0.59	0.655	0.919	0.778	0.918	1.06	–	–	–	–
EBC-1	–	–	–	–	–	–	–	–	–	0.103	0.0925	0.123	0.0888	0.393	0.359	0.433	0.288
HCC-44	0.453	0.441	0.493	0.374	0.365	1.04	0.916	1.02	1	–	–	–	–	0.852	0.574	0.44	0.677
NCI-H2342	0.717	0.589	0.569	0.64	0.669	0.539	0.527	0.493	0.538	0.959	1.04	1.03	1.17	–	–	–	–
NCI-H522	0.799	0.668	0.658	0.644	0.641	1.11	1.01	0.957	1.03	–	–	–	–	–	–	–	–
NCI-H1648	0.254	0.276	0.253	0.255	0.244	–	0.242	–	0.243	–	–	–	–	–	–	–	–
NCI-H1563	0.787	0.726	0.718	0.788	0.792	–	–	–	–	1.02	0.901	0.826	0.999	0.693	0.63	0.594	0.602
NCI-H1703	–	–	–	–	–	–	–	–	–	0.377	0.328	–	0.307	0.236	0.271	0.261	0.268
Calu-6	–	–	–	–	–	–	–	–	–	1.04	1.02	0.861	0.938	1.2	0.801	0.924	0.988
NCI-H596	0.715	0.67	0.818	0.721	0.528	–	–	–	–	0.906	0.974	0.734	0.67	0.396	0.397	0.416	0.378
NCI-H1623	0.452	0.388	0.245	0.36	0.225	–	–	–	–	0.902	0.832	0.871	0.868	–	–	–	–
A549	–	–	–	–	–	–	–	–	–	1.27	0.991	0.896	1.41	0.601	0.517	0.344	0.653
